{"source": "patent US20230407243A1", "about": "“GENETIC PLATFORM TO INVESTIGATE THE FUNCTIONS OF BACTERIAL DRUG EFFLUX PUMPS” (priority 2022, published 2023)", "type_in_all_cases": "cell-based, Escherichia coli", "key": {"[1]": {"tested_on": "EKO-35 strains producing different efflux pumps (EKO-35 araC::X)", "test": "Checkerboard synergy (FICI) of PAβN or NMP with antibiotics", "description": "(§1) Synergy measurement using checkerboard analysis was performed in 96-well microtiter plates using the microdilution broth method, according to CLSI guidelines (Patel J. B., 2015). The cell inocula were prepared using the colony resuspension method. The minimum inhibitory concentrations (MICs) were defined as the lowest concentration that provided no growth, as determined by measurement of the OD600nm using a Synergy H1 microplate reader (BioTek). Susceptibility testing was performed in MHB II with a final volume of 100 μL. PAI3N (Bachem Americas) was solubilized in MHB II. […] Solvent controls were included in each plate.\n(§2) The Fractional Inhibitory Concentration Index (FICI) was used to assess the synergy of PAI3N in combination with different antibiotics. The FICI represents the ΣFIC of each drug. The FICI for each drug was calculated using the following formula: FICI=FICA+FICB=(CA/MICA)+(CB/MICB). Where MICA and MICB are the MICs of drugs A (PAI3N/NMP) and B (antibiotic) alone, and CA and CB are the MICs of the drugs in combination. The effects of PAβN or NMP in combination with antibiotics were classified as: synergistic (FICI<0.5), additive (FICI>0.5-1.0), indifferent (FICI>1.0-2.0), and antagonistic (FICI>2.0). Fold increases in resistance provided by efflux pumps were calculated by dividing the MIC values of strains expressing efflux pumps by the MIC value of EKO-35."}, "[2]": {"tested_on": "EKO-35-Pore strains producing other efflux pumps", "test": "Checkerboard synergy (FICI), porinated strain", "settings": "EKO-35 mdtEF Pore; NMP alone, one value per checkerboard", "description": "as §1, §2"}, "[3]": {"tested_on": "EKO-35-Pore expressing the P. aeruginosa pump mexCD", "test": "Checkerboard synergy (FICI), porinated strain", "settings": "EKO-35 mexCD Pore; with Erythromycin", "description": "as §1, §2"}, "[4]": {"tested_on": "EKO-35-Pore acrBD408A (functionally inactive AcrB variant)", "test": "Checkerboard synergy (FICI), porinated strain", "settings": "EKO-35 acrBD408A Pore; with Ciprofloxacin", "description": "as §1, §2"}, "[5]": {"tested_on": "EKO-35 porinated strain expressing acrF (AcrEF)", "test": "Checkerboard synergy (FICI), porinated strain", "settings": "EKO-35 acrEF Pore; with Fusidic Acid", "description": "as §1, §2"}, "[6]": {"tested_on": "EKO-35 porinated strain expressing acrD", "test": "Checkerboard synergy (FICI), porinated strain", "settings": "EKO-35 acrD Pore; NMP alone, one value per checkerboard", "description": "as §1, §2"}, "EKO-35-Pore": {"tested_on": "EKO-35-Pore", "test": "Checkerboard synergy (FICI), porinated strain", "settings": "EKO-35 Pore; with Ethidium Bromide", "description": "as §1, §2"}, "wild-type K-12-Pore": {"tested_on": "wild-type K-12-Pore", "test": "Checkerboard synergy (FICI), porinated strain", "settings": "K-12 Pore", "description": "as §1, §2"}, "[7]": {"tested_on": "EKO-35 porinated strain expressing acrB", "test": "Checkerboard synergy (FICI), porinated strain", "settings": "EKO-35 acrB Pore", "description": "as §1, §2"}, "ΔtolC-Pore": {"tested_on": "ΔtolC-Pore", "description": "as §1, §2"}, "EKO-35 acrBD408A": {"tested_on": "EKO-35 acrBD408A", "settings": "EKO-35 acrBD408A", "description": "as §1, §2"}, "wild-type E. coli K-12": {"tested_on": "wild-type E. coli K-12", "settings": "K-12", "description": "as §1, §2"}, "EKO-35": {"tested_on": "EKO-35", "description": "as §1, §2"}, "ΔtolC": {"tested_on": "ΔtolC", "settings": "ΔtolC", "description": "as §1, §2"}}, "note": "Several values for one entry are separate records, joined by “and”; a condition that tells them apart may be missing. Equal values may be shown once. Read-outs that look alike come from different tables or passages of the source.", "data": [{"compound": "c1ccc2c(CN3CCNCC3)cccc2c1", "note": "[NMP, 1-(1-naphthylmethyl)-piperazine]", "values": [{"measurement": "NMP MICa Combined", "setting": "[1]; EKO-35 acrB, with Erythromycin", "result": 8, "unit": "µg/mL"}, {"measurement": "NMP MICa Combined", "setting": "[1]; EKO-35 acrB, with Linezolid", "result": 64, "unit": "µg/mL"}, {"measurement": "NMP MICa Combined", "setting": "[1]; EKO-35 acrEF, with Ciprofloxacin", "result": 64, "unit": "µg/mL"}, {"measurement": "NMP MICa Combined", "setting": "[1]; EKO-35 acrEF, with Oxacillin", "result": 64, "unit": "µg/mL"}, {"measurement": "NMP MICa Combined", "setting": "[1]; EKO-35 mdtEF, with Erythromycin", "result": 64, "unit": "µg/mL"}, {"measurement": "NMP MICa Combined", "setting": "[1]; EKO-35 mexCD, with Erythromycin", "result": 16, "unit": "µg/mL"}, {"measurement": "NMP MICa Alone", "setting": "[2]", "result": 256, "unit": "µg/mL"}, {"measurement": "NMP MICa Combined", "setting": "[3]", "result": 64, "unit": "µg/mL"}, {"measurement": "NMP MICa Combined", "setting": "[4]", "result": 4, "unit": "µg/mL"}, {"measurement": "NMP MICa Combined", "setting": "[5]", "result": 64, "unit": "µg/mL"}, {"measurement": "NMP MICa Alone", "setting": "[6]", "result": 256, "unit": "µg/mL"}, {"measurement": "NMP MICa Combined", "setting": "EKO-35-Pore", "result": 4, "unit": "µg/mL"}, {"measurement": "NMP MICa Combined", "setting": "wild-type K-12-Pore; with Linezolid", "result": 64, "unit": "µg/mL"}, {"measurement": "NMP MICa Combined", "setting": "wild-type K-12-Pore; with Oxacillin", "result": 8, "unit": "µg/mL"}, {"measurement": "NMP MICa Combined", "setting": "[7]; with Ethidium Bromide", "result": 32, "unit": "µg/mL"}, {"measurement": "NMP MICa Combined", "setting": "[7]; with Linezolid", "result": 64, "unit": "µg/mL"}, {"measurement": "NMP MICa Alone", "setting": "ΔtolC-Pore; ΔtolC Pore, NMP alone, one value per checkerboard", "result": 512, "unit": "µg/mL"}, {"measurement": "NMP MICa Combined", "setting": "ΔtolC-Pore; ΔtolC Pore, with Erythromycin", "result": 256, "unit": "µg/mL"}, {"measurement": "NMP MICa Combined", "setting": "ΔtolC-Pore; ΔtolC Pore, with Ethidium Bromide", "result": 128, "unit": "µg/mL"}, {"measurement": "NMP MICa Combined", "setting": "ΔtolC-Pore; ΔtolC Pore, with Linezolid", "result": 256, "unit": "µg/mL"}, {"measurement": "NMP MICa Combined", "setting": "ΔtolC-Pore; δtolC Pore, with Ciprofloxacin", "result": 256, "unit": "µg/mL"}, {"measurement": "NMP MICa Combined", "setting": "ΔtolC-Pore; δtolC Pore, with Fusidic Acid", "result": 128, "unit": "µg/mL"}, {"measurement": "NMP MICa Combined", "setting": "ΔtolC-Pore; δtolC Pore, with Oxacillin", "result": 16, "unit": "µg/mL"}, {"measurement": "NMP MICa Combined", "setting": "EKO-35 acrBD408A; with Ciprofloxacin", "result": 64, "unit": "µg/mL"}, {"measurement": "NMP MICa Combined", "setting": "EKO-35 acrBD408A; with Linezolid", "result": 8, "unit": "µg/mL"}, {"measurement": "NMP MICa Combined", "setting": "EKO-35 acrBD408A; with Oxacillin", "result": 1024, "unit": "µg/mL"}, {"measurement": "NMP MICa Combined", "setting": "wild-type E. coli K-12; with Ciprofloxacin", "result": 128, "unit": "µg/mL"}, {"measurement": "NMP MICa Combined", "setting": "wild-type E. coli K-12; with Erythromycin", "result": 128, "unit": "µg/mL"}, {"measurement": "NMP MICa Combined", "setting": "wild-type E. coli K-12; with Ethidium Bromide", "result": 64, "unit": "µg/mL"}, {"measurement": "NMP MICa Combined", "setting": "wild-type E. coli K-12; with Fusidic Acid", "result": 256, "unit": "µg/mL"}, {"measurement": "NMP MICa Combined", "setting": "wild-type E. coli K-12; with Linezolid", "result": 128, "unit": "µg/mL"}, {"measurement": "NMP MICa Combined", "setting": "wild-type E. coli K-12; with Oxacillin", "result": 64, "unit": "µg/mL"}, {"measurement": "NMP MICa Alone", "setting": "EKO-35; EKO-35, NMP alone, one value per checkerboard", "result": "512 µg/mL and 1024 µg/mL"}, {"measurement": "NMP MICa Combined", "setting": "EKO-35; EKO-35, with Ciprofloxacin", "result": 512, "unit": "µg/mL"}, {"measurement": "NMP MICa Combined", "setting": "EKO-35; EKO-35, with Erythromycin", "result": 256, "unit": "µg/mL"}, {"measurement": "NMP MICa Combined", "setting": "EKO-35; EKO-35, with Ethidium Bromide", "result": 512, "unit": "µg/mL"}, {"measurement": "NMP MICa Combined", "setting": "EKO-35; EKO-35, with Fusidic Acid", "result": 256, "unit": "µg/mL"}, {"measurement": "NMP MICa Combined", "setting": "EKO-35; EKO-35, with Linezolid", "result": 16, "unit": "µg/mL"}, {"measurement": "NMP MICa Combined", "setting": "EKO-35; EKO-35, with Oxacillin", "result": 256, "unit": "µg/mL"}, {"measurement": "susceptibility to the efflux pump inhibitor alone, efflux-deficient strains vs wild-type", "setting": "EKO-35; efflux-deficient strains EKO-35, EKO-35 acrBD408A, ΔtolC", "result": "comparable to the wild-type strain"}, {"measurement": "NMP MICa Combined", "setting": "ΔtolC; with Ciprofloxacin", "result": 512, "unit": "µg/mL"}, {"measurement": "NMP MICa Combined", "setting": "ΔtolC; with Erythromycin", "result": 128, "unit": "µg/mL"}, {"measurement": "NMP MICa Combined", "setting": "ΔtolC; with Ethidium Bromide", "result": 32, "unit": "µg/mL"}, {"measurement": "NMP MICa Combined", "setting": "ΔtolC; with Fusidic Acid", "result": 256, "unit": "µg/mL"}, {"measurement": "NMP MICa Combined", "setting": "ΔtolC; with Linezolid", "result": 512, "unit": "µg/mL"}, {"measurement": "NMP MICa Combined", "setting": "ΔtolC; with Oxacillin", "result": 8, "unit": "µg/mL"}]}]}
